Data: patent US6653258B1 (priority 1987, dated 2003)

Tests used:
[1] = system: foliar fungal diseases of plants; type: in vivo; design: key to disease control grading, […] (VINE): 4: no disease; 3: trace −5% of disease on untreated plants; key to disease control grading, PUCCINIA RECONDITA (WHEAT) / disease control grading, VENTURIA INAEQUALIS (APPLE) / disease control grading, CERCOSPORA ARACHIDICOLA (PEANUT) / disease control grading, PH[…] (TOMATO) / disease control grading, P[…] (RICE): 4: no disease; 3: trace −5% of disease on untreated plants; 6-25% of disease on untreated plants; 1: 26-59% of disease on untreated plants; 60-100% of disease on untreated plants; conditions: applied to soil (roots) and foliage one or two days before inoculation; for disease control grading, CERCOSPORA ARACHIDICOLA (PEANUT): Cercospora arachidicola on peanut; for disease control grading, P[…] (RICE): P[…] on rice; for disease control grading, PH[…] (TOMATO): Ph[…] on tomato; for disease control grading, PUCCINIA RECONDITA (WHEAT): Puccinia recondita on wheat; for disease control grading, VENTURIA INAEQUALIS (APPLE): Venturia inaequalis on apple; for disease control grading, […] (VINE): […] on vine
Erysiphe graminis = assay: Foliar fungal disease test on Erysiphe graminis, plants inoculated 24 hours before treatment (Table V); type: in vivo; design: key: 4: no disease; 3: trace −5% of disease on untreated plants; 6-25% of disease on untreated plants; 1: 26-59% of disease on untreated plants; 60-100% of disease on untreated plants; conditions: plants inoculated 24 hours before treatment

Compound | disease control grading, CERCOSPORA ARACHIDICOLA (PEANUT) [1] | disease control grading, P[…] (RICE) [1] | disease control grading, PH[…] (TOMATO) [1] | disease control grading, PUCCINIA RECONDITA (WHEAT) [1] | disease control grading, VENTURIA INAEQUALIS (APPLE) [1] | disease control grading, […] (VINE) [1] | disease control grading, ERYSIPHE GRAMINIS (BARLEY) (Erysiphe graminis)
CO/C=C(/C(=O)OC)c1ccccc1COc1ccccc1Br [24 (Table I)] | 4 | 4 | 4 | 4 | 4 | 4 | 4
CO/C=C(/C(=O)OC)c1ccccc1COc1ccccc1Cl [157 (Table I)] | 4 | 4 | 3 (trace −5% of disease on untreated plants) | 4 | 4 | 4 | 4
COC=C(C(=O)OC)c1ccccc1C(C)Sc1ccccc1 (centres unmarked) [2 (Table II)] | 0 (60-100% of disease on untreated plants) | 4 | 4 | 4 | 4 | 4 | 4
CO/C=C(/C(=O)OC)c1ccccc1COc1ccc(C#N)cc1 [38 (Table I)] | 4 | 0 (60-100% of disease on untreated plants) | 4 | 4 | 4 | 4 | 4
CO/C=C(/C(=O)OC)c1ccccc1COc1cccc(N)c1 [34 (Table I)] | 0 (60-100% of disease on untreated plants) | 0 (60-100% of disease on untreated plants) | 4 | 3 (trace −5% of disease on untreated plants) | 3 (trace −5% of disease on untreated plants) | 4 | 0 (60-100% of disease on untreated plants)
CCOc1cc(OCc2ccccc2/C(=C\OC)C(=O)OC)ccc1OC [170 (Table I)] | 4 | 3 (trace −5% of disease on untreated plants) | 4 | 0 (60-100% of disease on untreated plants) | 4 | 4 | 4
CO/C=C(/C(=O)OC)c1ccccc1COc1cccc(Cl)c1Cl [163 (Table I)] | 4 | 2 (6-25% of disease on untreated plants) | 4 | 4 | 4 | 4 | 4
CO/C=C(/C(=O)OC)c1ccccc1COc1cccc(C(F)(F)F)c1 [168 (Table I)] | 3 (trace −5% of disease on untreated plants) | 4 | 4 | 4 | 4 | 4 | 4
CO/C=C(/C(=O)OC)c1ccccc1COc1cc(Cl)ccc1Cl [158 (Table I)] | 4 | 4 | 3 (trace −5% of disease on untreated plants) | 4 | 4 | 4 | 4
CO/C=C(/C(=O)OC)c1ccccc1COc1ccc(Cl)c(Cl)c1 [45 (Table I)] | 4 | 4 | 4 | 4 | 4 | 4 | 3 (trace −5% of disease on untreated plants)
CO/C=C(/C(=O)OC)c1ccccc1COc1cccc(-c2cccc(OC)c2)c1 [172 (Table I)] | 4 | 0 (60-100% of disease on untreated plants) | 4 | 4 | 4 | 4 | 4
CO/C=C(/C(=O)OC)c1ccccc1COc1cccc(Br)n1 [176 (Table I)] |  | 4 | 4 | 4 | 4 | 4 | 4
CO/C=C(/C(=O)OC)c1ccccc1COc1cccc(C)c1 [164 (Table I)] | 4 | 4 | 3 (trace −5% of disease on untreated plants) | 4 | 4 | 4 | 4
CO/C=C(/C(=O)OC)c1ccccc1COc1ccccn1 [67 (Table I)] | 4 | 4 | 4 | 4 | 4 | 4 | 4
CO/C=C(/C(=O)OC)c1ccccc1COc1ccccc1[N+](=O)[O-] [33 (Table I)] | 4 | 4 | 3 (trace −5% of disease on untreated plants) | 4 | 4 | 4 | 2 (6-25% of disease on untreated plants)
CO/C=C(/C(=O)OC)c1ccccc1COc1cccc(Br)c1 [166 (Table I)] | 4 | 4 | 4 | 4 | 4 | 4 | 4
CO/C=C(/C(=O)OC)c1ccccc1COc1cccc(Oc2ccccc2OC)c1 [173 (Table I)] | 4 | 0 (60-100% of disease on untreated plants) | 4 | 4 | 4 | 4 | 3 (trace −5% of disease on untreated plants)
CO/C=C(/C(=O)OC)c1ccccc1COc1cccc(/N=C/c2ccccc2)c1 [180 (Table I)] | 4 | 2 (6-25% of disease on untreated plants) | 4 | 3 (trace −5% of disease on untreated plants) | 0 (60-100% of disease on untreated plants) | 4 | 0 (60-100% of disease on untreated plants)
CO/C=C(/C(=O)OC)c1ccccc1COc1cccc(I)c1 [25 (Table I)] | 4 | 2 (6-25% of disease on untreated plants) | 3 (trace −5% of disease on untreated plants) | 4 | 4 | 4 | 4
CO/C=C(/C(=O)OC)c1ccccc1COc1cc(Cl)cc(OC)c1 [167 (Table I)] | 3 (trace −5% of disease on untreated plants) | 4 | 4 | 4 | 4 | 4 | 4
CO/C=C(/C(=O)OC)c1ccccc1COc1cc(C(F)(F)F)ccn1 [174 (Table I)] | 4 | 0 (60-100% of disease on untreated plants) | 4 | 4 | 4 | 4 | 4
